# Experimental data published in patent publication US10238689B2, “Methods for combating bacterial infections by killing persister cells with mitomycin C and/or cisplatin” (THE PENN STATE RESEARCH FOUNDATION, priority 2015, dated 2019).
# Entries after “also recorded” stand apart in the source; their conditions may differ.
# Experiments:
# [1] = test system: gDNA (rrsG and murB) of E. coli K-12 BW25113/pCA24N; experiment: qPCR of gDNA crosslinking in cells (in vivo); format: cell-based, Escherichia coli; conditions: MMC 100 μg/mL 1 h
# Method: Overnight cultures (16 h) of E. coli K-12 BW25113/pCA24N grown in LB were diluted 1:1000 in buffered LB and grown to the desired turbidity. For exponential phase cells (i.e., non-persisters), cultures were grown to a turbidity of 2.0 at 600 nm. For rifampicin-induced persisters, cultures were grown to a turbidity of 0.8 at 600 nm, exposed to rifampicin (100 μg/mL) for 30 min, centrifuged, and resuspended in fresh medium to remove the rifampicin. Non-persister and rifampicin-induced persister cultures were treated with MMC (100 μg/mL) for 1 h. gDNA was extracted, using an UltraClean Microbial DNA Isolation Kit (MO BIO Laboratories, Carlsbad, Calif., USA), from samples taken before and after MMC treatment and 100 ng of DNA was used for qPCR of rrsG and murB using the GoTaq qPCR Master Mix (Promega, Madison, Wis., USA) and the StepOne Real-Time PCR System (Applied Biosystems, Foster City, Calif., USA) (primers are shown in Table 2). As a positive control, 3 μg of gDNA from BW25113 non-persisters was crosslinked in vitro with 500 μg/mL (1.5 mM) MMC in 0.2 mM EDTA, 50 mM NaCl, and 5 mM Tris (pH=7.6) with Na2S2O4 added six times at 10 min intervals to reach a final concentration of 2.25 mM (1.5× molarity of MMC). The in vitro crosslinking reaction was performed anaerobically on ice and the reaction was stopped by exposure to air.
# [2] = test system: P. aeruginosa PA14 and ΔtpbA biofilm cells; experiment: Persister cell killing assay (biofilm cells); format: cell-based, Pseudomonas aeruginosa; conditions: 3 h, 5×MIC (cisplatin 250 μg/mL, MMC 10 μg/mL), limit of detection 100 cells/mL
# Method: Persister cell killing assay (biofilm cells). […] Biofilm formation was assayed using the crystal violet staining method (Fletcher 1977) and was normalized by planktonic cell growth (turbidity at 620 nm) to account for any differences in growth rates. Data were averaged from 6 replicate wells using at least two independent cultures. […] NaClO4 (0.1M) was used as a solvent control for cisplatin. Cell viability in biofilms was assayed before and after the MMC and cisplatin treatments by removing supernatants (planktonic cells) from each well carefully, resuspending the biofilm in normal saline, and sonicating twice at 3W for 10 sec (Ueda and Wood 2009) to break apart the biofilm cells (due to the aggregative nature of P. aeruginosa ΔtpbA cells). Suspensions from multiple wells were combined to get an averaged sample. Then the cell suspensions were serially diluted in normal saline for a drop assay to check cell viability.
# P. aeruginosa PA14 [3] = experiment: Persister cell assay of pathogens (stationary phase), cisplatin vs MMC; format: cell-based, Pseudomonas aeruginosa; conditions: M9-glucose, 3 h
# Method: For the persister cell assay of the pathogens, stationary-phase cells were used. Cultures of EHEC, P. aeruginosa, and S. aureus were prepared by a 1:1000 dilution of overnight grown cultures (LB medium for EHEC and P. aeruginosa, TSB for S. aureus) into fresh buffered LB medium for EHEC, M9-glucose for P. aeruginosa, and TSB for S. aureus and re-growing the cells to a turbidity of 3 to 4 at 600 nm for EHEC and S. aureus and growing for 24 h for P. aeruginosa. […]
# NaClO4 (0.1M) was used as a solvent control. The viability of the cells was determined before and after cisplatin and MMC treatment. At least two independent cultures of each strain were used in each experiment.
# P. aeruginosa PA14 [4] = experiment: Minimum inhibitory concentration (MIC) assay; format: cell-based, Pseudomonas aeruginosa
# Method: Minimum inhibitory concentration (MIC) assay. To determine the MICs of cisplatin for E. coli K-12, enterohemorrhagic E. coli (EHEC), S. aureus, and P. aeruginosa (PAO1 and PA14), freshly inoculated cultures (at least two independent cultures) in buffered LB (TSB for S. aureus) were incubated for 16 h with varying concentrations of cisplatin, and growth inhibition was assayed by the lack of turbidity.
# pCA24N DNA = experiment: In vitro crosslinking of DNA and denaturing agarose gel electrophoresis; format: biochemical; conditions: cisplatin 200 μM 1.5 h and 3.5 h; MMC 500 μg/mL; denaturing gel
# Method: FIG. 10 provides data obtained from analysis of in vitro crosslinking of DNA with cisplatin and denaturing agarose gel electrophoresis. To produce the results shown in FIG. 10, pCA24N DNA (4518 bp) was in vitro crosslinked with cisplatin following a standard protocol. In brief, 2.2 μg of pCA24N DNA was linearized by HindIII digestion and cleaned using Wizard-SV gel and PCR clean-up system (Promega, Madison, Wis., USA). Linearized pCA24N was then treated with 200 μM (60 μg/mL) of cisplatin (Sigma-Aldrich, St. Louis, Mo., USA) for 1.5 h and 3.5 h at 37° C. The same amount of pCA24N DNA was also treated with an equivalent amount of 0.1M NaClO4 (solvent control for cisplatin) for 3.5 h at 37° C. Mitomycin C (MMC) was used as a positive control to compare types of crosslinking between cisplatin and MMC. For MMC, the same amount (2.2 μg) of pCA24N DNA was crosslinked essentially as in Example 1. In brief, linearized pCA24N DNA was treated with 500 μg/mL (1.5 mM) MMC or without MMC in 0.2 mM EDTA, 50 mM NaCl, and 5 mM Tris (pH 7.6) with Na2S2O4 added six times at 10 min intervals to reach a final concentration of 2.25 mM (1.5×molarity of MMC). The crosslinking reaction with MMC was performed anaerobically on ice and the reaction was stopped by exposure to air. […]
# [5] = 1×MIC (cisplatin 50 μg/mL, MMC 2 μg/mL)
# [6] = 5×MIC (cisplatin 250 μg/mL, MMC 10 μg/mL)
SMILES,"Fold Change in amplifiable DNA ([1]; Non-persisters, murB)","Fold Change in amplifiable DNA ([1]; Non-persisters, rrsG)","Fold Change in amplifiable DNA ([1]; Persisters, murB)","Fold Change in amplifiable DNA ([1]; Persisters, rrsG)",cell viability of biofilm cells ([2]; PA14 biofilm),cell viability of biofilm cells ([2]; ΔtpbA biofilm),survival (P. aeruginosa PA14 [3]; [5]),survival (P. aeruginosa PA14 [3]; [6]),MIC (1×MIC) (P. aeruginosa PA14 [4]),type of DNA crosslinking in vitro (pCA24N DNA)
"CO[C@@]12[C@H](COC(N)=O)C3=C(C(=O)C(C)=C(N)C3=O)N1C[C@@H]1N[C@@H]12 [MMC, mitomycin C]",−5.13±0.14 fold,−5.95±0.20 fold,−5.99±0.50 fold,−5.01±0.51 fold,could not eradicate,could not eradicate,5±2%,0.0056±0.0004%,2 µg/mL,crosslinks inter-strand DNA
"N.N.[Cl][Pt][Cl] [cisplatin, cis-diamminodichloroplatinum(II)]",,,,,completely eradicated,completely eradicated,completely eradicated,eradicated,50 µg/mL,crosslinks the same strand of DNA; also recorded: crosslinks intra-strand DNA
